Results from US20080234202A1, “Non-natural amino acids and neurotensin analogues” (priority 2004, published 2008).
Counter-ions that a name gives are not always drawn. Like-named read-outs stand apart in the source and are kept apart here. Marks after values point to notes of the source that are not given here. Where a SMILES comes first, the peptide text is derived from it. [ ]: non-standard residue; d: D form. The star is where a group is joined. X4 = [N-]=[N+]=N[C@@H](CCCCCN)C(=O)*; X2 = C[C@@H](CCC[N+](C)(C)C)C(=O)*; Tle = CC(C)(C)[C@H](N)C(=O)O; X1 = C[C@@H](CCCCCN)C(=O)*

Tests used:
[1] = target: NTR-2 (Rattus norvegicus, UniProt Q63384); conditions: for Tmax (I.P.) of %MPE / MPE (I.P.): IP at 10 mg/kg; for MPE (I.P.): hotplate 52 C, cutoff 30 sec; for asterisk at peptide name: significant activity in the hotplate assay: Table 13; for MPE (oral) / Tmax (Oral) of %MPE: orally at 20 mg/kg
Method: Animals. […] (230-260 g) or Harlan, Prattville Ala.
The Hotplate Assay. The hotplate assay, a standard rat model for […] pain (see Le Bars et al., Pharmacol. Rev. 53: 597-652 (2001) and Chapman et al., Pain 22:1-31 (2002)), was performed as follows. A hotplate maintained at 52° C. to 53° C. was enclosed on four sides in a plexiglass chamber that extended 6 in. above the plate. Animals were placed on the plate, and the latency between the time a rat was placed on the surface and when it lifts or licks a back paw (indicative of pain sensation) was determined. Animals are removed immediately at the cutoff latency of 30 seconds. Assays are scored as the percent of maximal possible effect (% MPE) defined as 100%, which corresponds to the rats remaining on the hotplate for 30 seconds without responding. Thus, % MPE are calculated using the following equation: % MPE=[(post-drug latency-pre-drug latency)/(cut-off pre-drug latency)]×100%. N=6 or greater for all experiments.
Values for each set of experiments will be submitted to analysis of variance, with dose (vehicle and 5 levels) as the factor. […] An effect will be considered significant if p<0.05.
Tmax indicates the time after dosing in which a maximum response was observed.
Initial screens of all peptides included (1) evaluating their analgesic ability when dosed IP or orally (indicative of NTR-2 agonism) and (2) evaluating their ability to induce hypothermia when IP, a secondary effect of NTR-1 agonist activity.

[2] = target: NTR-1 (Homo sapiens, UniProt P30989); assay: Competitive NTR-1 binding versus radiolabeled NT[8-13]
[3] = target: NTR-2 (Homo sapiens, UniProt O95665); assay: Competitive NTR-2 binding versus radiolabeled NT[8-13]
[4] = Formalin assay; conditions: morphine 5 mg/kg, approximately equimolar
[5] = Tail flick assay; conditions: ABS212 10 mg/kg, Morphine 5 mg/kg
[6] = d-Amphetamine induced hyperlocomotion and spontaneous locomotor activity; assay type: in vivo, rat; conditions: Table 11
Text: This model operates on the assumption that the direct stimulation of DA receptors within the mesolimbic DA system is responsible for the locomotor response.
Sound- and light-attenuated locomotor cages are used to measure the ability of potential candidates to decrease d-amphetamine-induced hyperactivity.
d-Amphetamine induced hyperlocomotion. Experimentally I male Sprague-Dawley rats were housed as described above. Rats were handled for three days prior to testing to minimize experimenter induced hyperlocomotion on test day. For experiments, sound- and light-attenuated automated photocell beam activity chambers (AccuScan Instruments, Inc., Columbus, Ohio) were used to measure locomotion. Cages were connected to a VersaMax Analyzer (AccuScan) in conjunction with an IBM computer using VersaMax 1.80-0146 software (AccuScan) to record vertical and horizontal activity. Total activity values recorded were the sum of vertical and horizontal activity.
Each animal's activity was measured by how many times per minute the animal “trips” a photobeam in a computer-controlled photocell activity chamber (San Diego Instruments, San Diego, Calif.). […] Doses were assigned so that each was assessed in 12 chambers that were distributed over the apparatus, which controls for variations in lighting, etc. of the different chambers. […]

[7] = rat, in vivo
Method: Cataleptic Analysis. In laboratory tests, catalepsy is characterized by the inability of an animal to correct its position after placement in an unnatural posture. […] To circumvent these potential confounding factors, tests are performed on an animal only once in a quiet, controlled environment.
Catalepsy Assessment. […] Rats were given an IP injection of peptide (5 mg/Kg), saline, or haloperidol (1 mg/kg). After 3 hours, catalepsy was measured using the horizontal bar test. Briefly, the front paws were placed directly on a horizontal bar 5 mm in diameter placed 7.5 cm above the cage floor. The rat was held in this position for 3 sec and then released. The time from release until the paws return to the cage floor was measured and recorded. A cut-off time of 30 sec was observed; this indicated a fully cataleptic animal as cataleptic animals are frozen to the bar. […] Measures were repeated every 30 min for 4 hr. Data are means±SEM (p<0.01).
After 2 h, catalepsy was measured using the horizontal bar test. Data are means±SEM (p<0.01).

[8] = in vitro; conditions: plasma
[9] = Pharmacokinetics of ABS212 in Sprague-Dawley rats; assay type: in vivo, rat; conditions: for Vd: read-out: volume of distribution at terminal phase; for half-life: read-out: half-life (T1/2) (converted); for clearance: read-out: systemic clearance (converted)
Text: These samples were used for the determination of plasma parent drug concentrations by LC/MS/MS for estimating pharmacokinetic parameters and oral bioavailability.

[10] = Acute toxicity, clinical observation and maximum tolerated dose in rats; assay type: in vivo, rat
Method: During the 2 and 24 hour post-dosing clinical observation periods, measurements of core body temperatures were taken.

[11] = Sprague-Dawley, rat, plasma, IV bolus 1 mg/kg
[12] = Sprague-Dawley, rat, plasma, IV bolus 2.5 mg/kg
[13] = Sprague-Dawley, rat, plasma, IV bolus 5 mg/kg
[14] = Sprague-Dawley, rat, plasma, oral 50 mg/kg

Sequence of NTR-2 (Homo sapiens, UniProt O95665) (O95665 whole entry, species assumed): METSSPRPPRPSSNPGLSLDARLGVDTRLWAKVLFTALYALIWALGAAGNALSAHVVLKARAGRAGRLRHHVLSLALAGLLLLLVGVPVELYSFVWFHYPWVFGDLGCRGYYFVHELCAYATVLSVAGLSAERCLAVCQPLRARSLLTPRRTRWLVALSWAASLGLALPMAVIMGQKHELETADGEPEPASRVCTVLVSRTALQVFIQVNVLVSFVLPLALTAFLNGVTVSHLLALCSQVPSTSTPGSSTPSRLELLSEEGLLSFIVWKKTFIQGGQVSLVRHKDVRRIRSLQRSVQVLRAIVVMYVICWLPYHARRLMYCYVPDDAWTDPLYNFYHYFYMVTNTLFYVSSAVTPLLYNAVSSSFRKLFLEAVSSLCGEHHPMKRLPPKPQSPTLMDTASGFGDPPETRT
Sequence of NTR-1 (P30989 whole entry, species assumed): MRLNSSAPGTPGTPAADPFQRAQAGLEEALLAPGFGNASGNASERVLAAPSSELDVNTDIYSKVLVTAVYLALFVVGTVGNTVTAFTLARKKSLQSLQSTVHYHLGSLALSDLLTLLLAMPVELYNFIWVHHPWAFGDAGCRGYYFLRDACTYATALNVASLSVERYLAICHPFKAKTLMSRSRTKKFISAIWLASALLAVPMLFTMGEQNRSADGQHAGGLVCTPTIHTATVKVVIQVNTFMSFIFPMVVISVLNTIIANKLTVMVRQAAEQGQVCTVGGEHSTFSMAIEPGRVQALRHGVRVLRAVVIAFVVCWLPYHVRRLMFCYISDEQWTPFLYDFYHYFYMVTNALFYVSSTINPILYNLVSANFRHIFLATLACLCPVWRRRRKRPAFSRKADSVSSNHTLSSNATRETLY
Sequence of NTR-2 (Rattus norvegicus, UniProt Q63384) (Q63384 whole entry): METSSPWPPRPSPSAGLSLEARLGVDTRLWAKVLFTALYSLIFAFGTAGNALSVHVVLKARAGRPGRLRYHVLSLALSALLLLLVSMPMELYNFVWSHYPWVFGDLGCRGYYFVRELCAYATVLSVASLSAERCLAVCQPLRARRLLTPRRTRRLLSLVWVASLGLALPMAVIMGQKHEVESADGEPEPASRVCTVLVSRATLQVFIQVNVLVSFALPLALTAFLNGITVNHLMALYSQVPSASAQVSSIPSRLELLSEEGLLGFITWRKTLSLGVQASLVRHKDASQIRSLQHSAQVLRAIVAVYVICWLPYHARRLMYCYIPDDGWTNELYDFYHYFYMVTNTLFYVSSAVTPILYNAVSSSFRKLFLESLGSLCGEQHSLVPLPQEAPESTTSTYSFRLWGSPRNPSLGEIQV

Molecule: Arg-Arg-Pro-Tyr-t-Leu-Leu [ABS237]
- Tmax (I.P.) of %MPE [1]: 30
- MPE (I.P.) ([1]; 10 mg/kg): 50%

Molecule: hLys-Arg-Pro-Tyr-t-Leu-Leu [ABS225]
- Tmax (I.P.) of %MPE [1]: 15-45
- asterisk at peptide name: significant activity in the hotplate assay [1]: ABS225*
- MPE (I.P.) [1]: 100%
- MPE (oral) ([1]; hotplate): 38%
- Tmax (Oral) of %MPE [1]: 30

Molecule: Orn-Arg-Pro-Tyr-t-Leu-Leu [ABS209]
- Tmax (I.P.) of %MPE ([1]; 10 mg/kg): 60
- MPE (I.P.) ([1]; 10 mg/kg): 89%

Molecule: Lys-Arg-Pro-Tyr-t-Leu-Leu [ABS205]
- Tmax (I.P.) of %MPE ([1]; 10 mg/kg): 15-30
- asterisk at peptide name: significant activity in the hotplate assay [1]: ABS205*
- MPE (I.P.) ([1]; 10 mg/kg): 86%
- MPE (oral) ([1]; hotplate): 66%
- Tmax (Oral) of %MPE [1]: 30

Molecule: Lys-Arg-Pro-Tyr-t-Leu-Leu [ABS229]
- Tmax (I.P.) of %MPE ([1]; 10 mg/kg): 60
- MPE (I.P.) ([1]; 10 mg/kg): 48%

Molecule: CC[C@H](C)[C@H](NC(=O)[C@H](Cc1ccc(O)cc1)NC(=O)[C@@H]1CCCN1C(=O)[C@H](CCCNC(=N)N)NC(=O)[C@H](CCCNC(=N)NC)N=[N+]=[N-])C(=O)N[C@@H](CC(C)C)C(=O)O [ABS16, X-Arg-Pro-Tyr-isoleu-Leu]
- EC50 [2]: 0.3 ± 0.05 nM

Molecule: CC[C@H](C)[C@H](NC(=O)[C@H](Cc1ccc(O)cc1)NC(=O)[C@@H]1CCCN1C(=O)[C@H](CCCNC(=N)N)NC(=O)[C@H](CCCNC(=N)N)N=[N+]=[N-])C(=O)N[C@@H](CC(C)C)C(=O)O [ABS15, X-Arg-Pro-Tyr-isoleu-Leu]
- EC50 [2]: 0.4 ± 0.1 nM
- EC50 [3]: 0.9 ± 0.2 nM
- NTR-1/NTR-2 selectivity ([3]; Table 12): 2.5

Molecule: CCNC(=N)NCCC[C@H](N=[N+]=[N-])C(=O)N[C@@H](CCCNC(=N)N)C(=O)N1CCC[C@H]1C(=O)N[C@@H](Cc1ccc(O)cc1)C(=O)N[C@H](C(=O)N[C@@H](CC(C)C)C(=O)O)[C@@H](C)CC [ABS17, X-Arg-Pro-Tyr-isoleu-Leu]
- EC50 [2]: 0.25 ± 0.07 nM

Molecule: CN1CC[C@]23c4c5ccc(O)c4O[C@H]2[C@@H](O)C=C[C@H]3[C@H]1C5 [Morphine, reference compound]
- duration of activity of morphine [4]: loses activity after 30 minutes
- MPE (0 min) [5]: 0.03 +/− 0.05
- MPE (30 min) [5]: 63.7 +/− 41.9
- MPE (60 min) [5]: 67.5 +/− 25.8

Molecule: Arg-Arg-Pro-Tyr-t-Leu-Leu [ABS213]
- Tmax (I.P.) of %MPE [1]: 30
- MPE (I.P.) ([1]; 10 mg/kg): 48%

Molecule: X-Arg-Pro-Tyr-isoleu-Leu [ABS19]
- EC50 ([2]; competitive binding, Table 12, read-out: NTR-1): 1.2 ± 0.7 nM

Molecule: CC(C)C[C@H](NC(=O)[C@@H](NC(=O)[C@H](Cc1ccc(O)cc1)NC(=O)[C@@H]1CCCN1C(=O)[C@H](CCCNC(=N)N)NC(=O)[C@H](CCCCCN)N=[N+]=[N-])C(C)(C)C)C(=O)O [ABS13, N3-L-homolysine-Arg-Pro-Tyr-tertLeu-Leu-COOH] (X4-RPY[Tle]L-OH)
- EC50 [2]: 5.7 ± 0.37 nM
- EC50 [3]: 11.1 ± 0.1 nM

Molecule: CC[C@H](C)[C@H](NC(=O)[C@H](Cc1ccc(O)cc1)NC(=O)[C@@H]1CCCN1C(=O)[C@H](CCCNC(=N)N)NC(=O)[C@@H](N)CCCNC(=N)N)C(=O)N[C@@H](CC(C)C)C(=O)O [NT(8-13), NH2-Arg-Arg-Pro-Tyr-Ile-Leu-COOH]
- Hyperlocomotion Inhibition (active routes) [6]: CNS administration
- Inhibits locomotor activity (active routes) [6]: CNS administration
- Catalepsy [7]: No
- half-life [8]: 5 min

Molecule: Boc-Arg-Pro-Tyr-t-Leu-Leu [ABS700]
- Tmax (I.P.) of %MPE [1]: 90
- MPE (I.P.) [1]: 51%

Molecule: CC(C)C[C@H](NC(=O)[C@@H](NC(=O)[C@H](Cc1ccc(O)cc1)NC(=O)[C@@H]1CCCN1C(=O)[C@H](CCCNC(=N)N)NC(=O)[C@@H](C)CCC[N+](C)(C)C)C(C)(C)C)C(=O)O [ABS-212.2HCL] (X2-RPY[Tle]L-OH)
- clearance as % of rat hepatic blood flow (3.31 L/hr/kg) ([9]; IV bolus 1 mg/kg): 32.33%
- clearance as % of rat hepatic blood flow (3.31 L/hr/kg) ([9]; IV bolus 5 mg/kg): 12.08%
- clearance as % of rat hepatic blood flow (3.31 L/hr/kg) ([9]; IV bolus […]): 12.08%
- Vd ([9]; Sprague-Dawley, rat, plasma, IV 1 mg/kg): 0.43 ± 0.15 L/kg
- Vd ([9]; Sprague-Dawley, rat, plasma, IV 2.5 mg/kg): 0.15 ± 0.01 L/kg
- Vd ([9]; Sprague-Dawley, rat, plasma, IV 5 mg/kg): 0.16 ± 0.06 L/kg
- half-life [9, 11]: 16.8 ± 4.8 min
- clearance [9, 11]: 17.8 mL/min/kg
- half-life [9, 12]: 16.8 ± 6.6 min
- clearance [9, 12]: 6.67 mL/min/kg
- half-life [9, 13]: 17.4 ± 7.8 min
- clearance [9, 13]: 6.67 mL/min/kg
- AUC(0-inf) [9, 14]: 53.1 ± 39.6 ng·h/mL
- Cmax [9, 14]: 27.1 ± 11.6 ng/mL
- Tmax [9, 14]: 8.4 ± 3 min
- bioavailability ([9]; Sprague-Dawley, rat, plasma, oral 50 mg/kg, 1 mg/kg group as IV dose data): 0.11 ± 0.08%
- half-life [9, 14]: 85.2 ± 52.2 min

Molecule: Orn-Arg-Pro-Tyr-t-Leu-Leu [ABS233]
- Tmax (I.P.) of %MPE ([1]; 10 mg/kg): 45
- MPE (I.P.) ([1]; 10 mg/kg): 51%

Molecule: CC(C)C[C@H](NC(=O)[C@@H](NC(=O)[C@H](Cc1ccc(O)cc1)NC(=O)[C@@H]1CCCN1C(=O)[C@H](CCCNC(=N)N)NC(=O)[C@@H](C)CCCCCN)C(C)(C)C)C(=O)O [ABS201 HCl] (X1-RPY[Tle]L-OH)
- clinical observation 2 hour post-dosing ([10]; 50 mg/kg IV): all animals appeared grossly normal although marked hypothermia was present
- clinical observation 24 hour post-dosing ([10]; 50 mg/kg IV): all animals appeared grossly normal; hypothermia was absent
- acute behaviour during intravenous dosing ([10]; 50 mg/kg IV, slow push via tail vein): noticeably sedate
- clinical observation after oral dosing ([10]; 250 mg/kg PO): appeared grossly normal at all time points

Molecule: 1-Arg-Pro-Tyr-t-Leu-Leu [ABS202]
- Tmax (I.P.) of %MPE ([1]; 10 mg/kg): 30-75
- asterisk at peptide name: significant activity in the hotplate assay [1]: ABS202*
- MPE (I.P.) ([1]; 10 mg/kg): 100%
- % MPE ([1]; hotplate 52° C., cutoff 30 seconds, Table 10): 100%
- % MPE (tmax, min) ([1]; hotplate, Table 10): 45 min
- MPE (oral) ([1]; hotplate, 20 mg/kg): 52%
- Tmax (Oral) of %MPE ([1]; 20 mg/kg): 45
